Columns and labels:
HIV-1 strain LAI = assay: Cellular anti-HIV assay, MT4 cells, MTT readout, wild type HIV-1 strain LAI; assay type: cell-based; conditions: for WT (pIC50 against wild type HIV-LAI strain): Table 4
Protocol: The compounds of the present invention were examined for anti-viral activity in a cellular assay. […] The cellular assay was performed according to the following procedure.

mutant A = assay type: cell-based; conditions: FR=IC50(mutant strain)/IC50(HIV-1 strain LAI)
Protocol: (§1) HIV- or mock-infected MT4 cells were incubated for five days in the presence of various concentrations of the inhibitor. […] Cell viability is measured by measuring the concentration of MTT, a yellow, water soluble tetrazolium dye that is converted to a purple, water insoluble formazan in the mitochondria of living cells only. Upon solubilization of the resulting formazan crystals with isopropanol, the absorbance of the solution is monitored at 540 nm. The values correlate directly to the number of living cells remaining in the culture at the completion of the five day incubation. The inhibitory activity of the compound was monitored on the virus-infected cells and was expressed as IC50 and IC90. These values represent the amount of the compound required to protect 50% and 90%, respectively, of the cells from the cytopathogenic effect of the virus. […] The selectivity index (SI) (ratio CC50/IC50) is an indication of the selectivity of the anti-HIV activity of the inhibitor. Wherever results are reported as e.g. pIC50 or pCC50 values, the result is expressed as the negative logarithm of the result expressed as IC50 or CC50 respectively.
(§2) Because of the increasing emergence of drug resistant HIV strains, the present compounds were tested for their potency against clinically isolated HIV strains harboring several mutations. […] The viral strains R13025, R13027, R13028, R13029, R13034, R13080, T13127 and R13363 contained mutations as indicated below in Table 3.
(§3) As a measure of the broad spectrum activity of the present compounds, the fold resistance (FR), defined as FR=IC50(mutant strain)/IC50(HIV-1 strain LAI), was determined.

mutant E = assay type: cell-based; conditions: FR=IC50(mutant strain)/IC50(HIV-1 strain LAI)
Protocol: as §1, §2, §3

mutant H = assay: Antiviral spectrum, fold resistance towards mutant H; assay type: cell-based; conditions: FR=IC50(mutant strain)/IC50(HIV-1 strain LAI)
Protocol: Because of the increasing emergence of drug resistant HIV strains, the present compounds were tested for their potency against clinically isolated HIV strains harboring several mutations. These mutations are associated with resistance to protease inhibitors and result in viruses that show various degrees of phenotypic cross-resistance to the currently commercially available drugs such as for instance saquinavir, ritonavir, nelfinavir, indinavir and amprenavir. The viral strains R13025, R13027, R13028, R13029, R13034, R13080, T13127 and R13363 contained mutations as indicated below in Table 3.

mock-infected MT4 cells = assay: in vitro
Protocol: as §1, §3

[1] = Table 1, MT4 cells, five days, HIV-1 strain LAI
[2] = pCC50 value as determined with mock transfected cells
[3] = Table 2, MT4 cells, five days, HIV-1 strain LAI

SMILES | pIC50 (LAI) (HIV-1 strain LAI; [1]) | IC50 (HIV-1 strain LAI; Human immunodeficiency virus 1, 120 h, Table 1, MT4 cells, five days, HIV-1 strain LAI, read-out: pIC50 (LAI) (converted)) [nM] | WT (pIC50 against wild type HIV-LAI strain) (HIV-1 strain LAI) | FR value towards mutant A (mutant A) | FR towards mutant E (mutant E) | FR towards mutant H (mutant H) | Tox (pCC50) (mock-infected MT4 cells) | Tox (pCC50) (mock-infected MT4 cells; [2]) | pIC50 (LAI) (HIV-1 strain LAI; [3])
COC(=O)Nc1nc2ccc(S(=O)(=O)N(CC(C)C)CC(O)C(Cc3ccccc3)NC(=O)OC3COC4OCCC34)cc2[nH]1 (stereo not drawn) [Compound 10] | 8.0 | – | – | – | – | – | – | – | –
CC(C)CN(C[C@@H](O)[C@H](Cc1ccccc1)NC(=O)O[C@H]1CCOC1)S(=O)(=O)c1ccc2ncn(CC(C)C)c2c1 [Compound 14] | 7.7 | – | – | – | – | – | – | – | –
CC(C)CN(C[C@@H](O)[C@H](Cc1ccccc1)NC(=O)O[C@H]1CO[C@H]2OCC[C@H]21)S(=O)(=O)c1ccc2ncn(CCN3CCCC3)c2c1 [Compound 20, [(1S,2R)-2-hydroxy-1-(phenyl-methyl)-3-[[[1-[2-(pyrrolidin-1-yl)ethyl]benzimidazol-6-yl]sulfonyl](2-methylpropyl)-amino]propyl]carbamic acid, [(3R,3aS,6aR)-hexahydrofuro[2,3-b]furan-3-yl]ester] | – | 39.8 | – | – | – | – | – | – | –
COC(=O)Nc1nc2ccc(S(=O)(=O)N(CC(C)C)C[C@@H](O)[C@H](Cc3ccccc3)NC(=O)c3ccc(O)cc3C)cc2[nH]1 [Compound 25] | 7.1 | – | 7.1 | 1.2 | 1.3 | 4.6 | 4.3 | – | –
COC(=O)Nc1nc2ccc(S(=O)(=O)N(CC(C)C)C[C@@H](O)[C@H](Cc3ccccc3)NC(=O)COc3c(C)cc(CN)cc3C)cc2[nH]1 [Compound 26] | 7.0 | – | 7.0 | 6.3 | 6.8 | 47 | – | 4.86 | –
CC(=O)Nc1nc2ccc(S(=O)(=O)N(CC(C)C)C[C@@H](O)[C@H](Cc3ccccc3)NC(=O)O[C@H]3CCOC3)cc2[nH]1 [Compound 27] | 7.3 | – | 7.3 | 2.7 | 1.1 | 2.3 | <4 | – | –
CC(C)CN(CC(O)C(Cc1ccccc1)NC(=O)OC1COC2OCCC12)S(=O)(=O)c1ccc2ncn(Cc3ccncc3)c2c1 (stereo not drawn) [Compound 28] | 7.5 | – | 7.5 | 1.5 | 1.3 | 2.6 | – | – | –
Cc1cccc(C)c1OCC(=O)N[C@@H](Cc1ccccc1)[C@H](O)CN(CC(C)C)S(=O)(=O)c1ccc2nc[nH]c2c1 [Compound 29] | 7.1 | – | 7.1 | 14 | 13 | 78 | 4.21 | – | –
CC(C)CN(C[C@@H](O)[C@H](Cc1ccccc1)NC(=O)OCc1cncs1)S(=O)(=O)c1ccc2ncn(Cc3ccccc3)c2c1 [Compound 30] | 7.1 | – | 7.1 | 18 | 13 | 65 | – | – | –
Cc1cccc(C)c1OCC(=O)N[C@@H](Cc1ccccc1)[C@H](O)CN(CC(C)C)S(=O)(=O)c1ccc2ncn(C)c2c1 [Compound 31] | 7.2 | – | 7.2 | 13 | 9.5 | 209 | 4.24 | – | –
CC(C)CN(C[C@@H](O)[C@H](Cc1ccccc1)NC(=O)OCc1cncs1)S(=O)(=O)c1ccc2ncn(CC(C)C)c2c1 [Compound 32] | 7.4 | – | 7.4 | 18 | 13 | 41 | 4.2 | – | –
CC(C)CN(C[C@@H](O)[C@H](Cc1ccccc1)NC(=O)OC(C)(C)C)S(=O)(=O)c1ccc2nc(N)n(Cc3ccccc3)c2c1 [Compound 39] | 6.9 | – | 6.9 | 32 | 3.5 | – | – | – | –
CC(C)CN(C[C@@H](O)[C@H](Cc1ccccc1)NC(=O)O[C@H]1CO[C@H]2OCC[C@H]21)S(=O)(=O)c1ccc2nc(NCCN3CCCC3)n(CCc3ccccc3)c2c1 [Compound 40, [(1S,2R)-2-hydroxy-3-[[[[1-(phenethyl)-2-[2-(pyrrolidin-1-yl)ethylamino]]benzimidazol-6-yl]sulfonyl](2-methylpropyl)amino]-1-(phenylmethyl)propyl]carbamic acid, [(3R,3aS,6aR)-hexahydrofuro[2,3-b]furan-3-yl]ester] | 6.4 | – | 6.4 | 10 | 4.0 | 7.9 | – | – | –
CC(C)CN(C[C@@H](O)[C@H](Cc1ccccc1)NC(=O)O[C@H]1CCOC1)S(=O)(=O)c1ccc2nc[nH]c2c1 [Compound 42] | 7.1 | – | 7.1 | – | 8.7 | 52 | <4 | – | –
Cc1cccc(C)c1OCC(=O)N[C@@H](Cc1ccccc1)[C@H](O)CN(CC(C)C)S(=O)(=O)c1ccc2ncn(CC(C)C)c2c1 [Compound 45] | 6.3 | – | 6.3 | 9.3 | 7.4 | – | <4 | – | –
Cc1c(N)cccc1C(=O)N[C@@H](Cc1ccccc1)[C@H](O)CN(CC(C)C)S(=O)(=O)c1ccc2nc[nH]c2c1 [Compound 46] | 6.4 | – | 6.4 | – | – | – | – | <4 | –
CC(C)CN(CC(O)C(Cc1ccccc1)NC(=O)OC1COC2OCCC12)S(=O)(=O)c1ccc2ncn(Cc3cncn3C)c2c1 (stereo not drawn) [Compound 51] | 6.2 | – | 6.2 | 2.8 | 0.89 | 2.1 | – | – | –
CC(C)CN(C[C@@H](O)[C@H](Cc1ccccc1)NC(=O)O[C@H]1CCOC1)S(=O)(=O)c1ccc2nc(N)[nH]c2c1 [Compound 53] | 6.0 | – | 6.0 | – | – | – | 4.05 | – | –
CC(C)CN(CC(O)C(Cc1ccccc1)NC(=O)OC1COC2OCCC12)S(=O)(=O)c1ccc2c(c1)ncn2CCN(C)C (stereo not drawn) [Compound 60] | – | – | – | – | – | – | – | – | 6.5
Cc1cc(N)cc(C)c1OCC(=O)N[C@@H](Cc1ccccc1)[C@H](O)CN(CC(C)C)S(=O)(=O)c1ccc2c(c1)ncn2CCN(C)C [Compound 62] | – | – | – | – | – | – | – | – | 5.7

— patent US8143421B2, “Broadspectrum substituted benzimidazole sulfonamide HIV protease inhibitors” (priority 2002, dated 2012)
